In patent US11845752B2, “Substituted imidazo[1,5-a]pyrazines for the treatment of hepatitis B” (ALIGOS THERAPEUTICS, INC., priority 2020, dated 2023):

What follows are compounds tested on HBV (assay: HBV-DNA antiviral assay using HepG2.117 cells (intracellular HBV DNA by qPCR)). Details: HBV DNA inhibition, 3 days incubation, listed as 4h.
Type: cell-based, HBV genotype D
Description: The following assay procedure describes the HBV antiviral assay, using HepG2.117 cells, which carry a stably integrated genotype D HBV genome under the control of a Tet-off promoter, and intracellular HBV DNA quantification as endpoint. Cell viability is assessed in parallel by measuring the intracellular ATP content using ATPlite (Perkin Elmer).
On day 0, HepG2.117 cells (which are maintained in routine cell culture with doxycycline present in the medium at a final concentration of 1 μg/mL) were seeded in 96-well plates (white with clear bottom) at a density of 2.0×10^4 cells/well (0.1 mL/well) in medium without doxycycline to induce pgRNA transcription and subsequent formation of HBV particles. The cells were incubated at 37° C. and 5% CO2.
On day 1, medium was removed from each well, the test articles were diluted in culture medium without doxcycyline and 100 μL was added to cell culture wells (9 concentrations, 4-fold dilution). For each plate, 6 untreated (merely DMSO) wells were included. The final concentration of DMSO in the culture medium was 2%. Each plate was prepared in duplicate (one for HBV DNA extraction, one for ATPlite measurement). The cells were incubated at 37° C. and 5% CO2 for 3 days.
On day 4, cell viability was assessed using ATPlite and cell lysates were prepared for HBV DNA extraction and subsequent quantification by qPCR.
Medium was removed from each well and 100 μL of 0.33% NP-40 in H2O was added to each well. Plates were sealed, incubated at 4° C. for 5 mins, vortexed extensively and centrifuged briefly. Next, 35 μL of lysate was added to 65 μL QuickExtract DNA Extraction Solution (Epicentre) in a PCR plate for each well. PCR plate was incubated at 65° C. for 6 mins, 98° C. for 2 mins and finally cooled to 4° C. HBV DNA was then quantified by qPCR with HBV-specific primers and probes as specified in Table 1 using the Bio-Rad SSOAdvanced Universal Probes Supermix on a CFX96 machine (Bio-Rad). The PCR cycle program consisted of 95° C. for 3 mins, followed by 40 cycles at 95° C. for 10 sec and 60° C. for 30 sec.
A DNA standard was prepared by dilution of an IDT gBlock corresponding to the amplicon with concentrations ranging from 10^2 to 10^8 copies/input (i.e. per 4 μL) and used to generate a standard curve by plotting Cq values vs. HBV DNA standard concentration. The quantity of HBV DNA in each sample was determined by interpolating from the standard curve.
Cell viability was calculated as follows: % Cell viability=(luminescence value of test sample)/(average luminescence value of 2% DMSO control)×100%. HBV DNA inhibition was calculated as follows: 100−(HBV DNA copy number of test sample)/(average HBV DNA copy number of 2% DMSO control)×100%. No normalization to entecavir was required due to the excellent dynamic window of this assay. The CC50, EC50 and EC90 values were determined by dose-response curves fitted using non-linear regression.

| Compound | EC50 |
| --- | --- |
| CC1Cn2c(c(C(=O)NCc3ccccc3-c3ccncn3)n(-c3ccc(-n4cccn4)cc3)c2=O)CN1C(=O)c1ccc(Br)c(Cl)c1 (single isomer, unassigned) [Compound 4b, 7-(4-bromo-3-chloro-benzoyl)-6-methyl-3-oxo-2-(4-pyrazol-1-ylphenyl)-N-[(2-pyrimidin-4-ylphenyl)methyl]-6,8-dihydro-5H-imidazo[1,5-a]pyrazine-1-carboxamide] | < 50 nM |

Same assay, conditions: HBV DNA inhibition, 3 days incubation, read-out: EC50

| Compound | EC50 |
| --- | --- |
| Cc1nnc(-c2cccc(F)c2CNC(=O)c2c3n(c(=O)n2-c2ccc(OC4CC4)cc2)CC(C)N(C(=O)c2ccc(Br)c(C(F)(F)F)c2)C3)o1 (single isomer, unassigned) [Compound 33b] | < 50 nM |
| CC1Cn2c(c(C(=O)NCc3ccccc3-c3ncccn3)n(-c3ccc(OC4CC4)cc3)c2=O)CN1C(=O)c1ccc(Br)c(Cl)c1 (single isomer, unassigned) [Compound 3b, (6R*)-7-(4-bromo-3-chloro-benzoyl)-2-[4-(cyclopropoxy)phenyl]-6-methyl-3-oxo-N-[(2-pyrimidin-2-ylphenyl)methyl]-6,8-dihydro-5H-imidazo[1,5-a]pyrazine-1-carboxamide] | 50 to 500 nM |
| CC1Cn2c(c(C(=O)NCc3ccccc3-c3ccncn3)n(-c3ccc4nn(CC(F)(F)F)cc4c3)c2=O)CN1C(=O)c1ccc(Br)c(C(F)(F)F)c1 (single isomer, unassigned) [Compound 79b] | < 50 nM |
| CC1Cn2c(c(C(=O)NCc3ccccc3-c3ccncn3)n(-c3ccc4oc(N)nc4c3)c2=O)CN1C(=O)c1ccc(Br)c(C(F)(F)F)c1 (single isomer, unassigned) [Compound 93b, (6S*)-2-(2-amino-1,3-benzoxazol-5-yl)-7-[4-bromo-3-(trifluoromethyl)benzoyl]-6-methyl-3-oxo-N-{[2-(pyrimidin-4-yl)phenyl]methyl}-5H,6H,8H-imidazo[1,5-a]pyrazine-1-carboxamide] | 50 to 500 nM |
| CC1Cn2c(c(C(=O)NCc3ccccc3-c3cccnn3)n(-c3ccc(OC4CC4)cc3)c2=O)CN1C(=O)c1ccc(Br)c(Cl)c1 (single isomer, unassigned) [Compound 7b, 7-(4-bromo-3-chloro-benzoyl)-2-[4-(cyclopropoxy)phenyl]-6-methyl-3-oxo-N-[(2-pyridazin-3-ylphenyl)methyl]-6,8-dihydro-5H-imidazo[1,5-a]pyrazine-1-carboxamide] | < 50 nM |
| COc1nccc(-c2ccccc2CNC(=O)c2c3n(c(=O)n2-c2ccc(OC4CC4)cc2)CC(C)N(C(=O)c2ccc(Br)c(Cl)c2)C3)n1 (single isomer, unassigned) [Compound 37b] | < 50 nM |
| C#Cc1cc(C(=O)N2Cc3c(C(=O)NCc4ccccc4-c4ccncn4)n(-c4ccc(OC5CC5)cc4)c(=O)n3CC2C)ccc1Br (single isomer, unassigned) [Compound 20b] | 50 to 500 nM |

Same assay, conditions: Hepatitis B virus, HepG2.117, 72 h, HBV DNA inhibition, 3 days incubation, read-out: EC50

| Compound | EC50 |
| --- | --- |
| CC1Cn2c(c(C(=O)NCc3ccccc3-c3ccn(C)n3)n(-c3ccc(OC4CC4)cc3)c2=O)CN1C(=O)c1ccc(Br)c(Cl)c1 (single isomer, unassigned) [Compound 22a] | 50 to 500 nM |
| CC1Cn2c(c(C(=O)NCc3ccccc3-c3ncccn3)n(-c3ccc(N4CCN(C)CC4)cc3)c2=O)CN1C(=O)c1ccc(Br)c(Cl)c1 (single isomer, unassigned) [Compound 21a] | < 50 nM |
| C[C@H]1Cn2c(c(C(=O)NCc3ccccc3-c3ccccn3)n(-c3ccc(OC[C@@](C)(O)C(F)(F)F)cc3)c2=O)CN1C(=O)c1ccc(Br)c(C(F)(F)F)c1 (stereo in doubt) [Compound 89b, rac-(6S)-7-[4-bromo-3-(trifluoromethyl)benzoyl]-6-methyl-3-oxo-N-[[2-(2-pyridyl)phenyl]methyl]-2-[4-[rac-(2R)-3,3,3-trifluoro-2-hydroxy-2-methyl-propoxy]phenyl]-6,8-dihydro-SH-imidazo[1,5-a]pyrazine-1-carboxamide] | < 50 nM |
| CC1Cn2c(c(C(=O)NCc3ccccc3-c3ncccn3)n(-c3ccc4c(cnn4C[C@@H](C)O)c3)c2=O)CN1C(=O)c1ccc(Br)c(C(F)(F)F)c1 (stereo in doubt) [Compound 91a, (6R*)-7-[4-bromo-3-(trifluoromethyl)benzoyl]-2-{1-[(2R)-2-hydroxypropyl]indazol-5-yl}-6-methyl-3-oxo-N-{[2-(pyrimidin-2-yl)phenyl]methyl}-5H,6H,8H-imidazo[1,5-a]pyrazine-1-carboxamide] | 50 to 500 nM |
| CC1Cn2c(c(C(=O)NCc3ccccc3-c3ncccn3)n(-c3ccc(OC[C@H](C)O)cc3)c2=O)CN1C(=O)c1ccc(Br)c(C(F)(F)F)c1 (single isomer, unassigned) [Compound 65a] | < 50 nM |
| CC1Cn2c(c(C(=O)NCc3ccccc3-c3ccccn3)n(-c3ccc(OC[C@H](O)C(F)(F)F)cc3)c2=O)CN1C(=O)c1ccc(Br)c(C(F)(F)F)c1 (single isomer, unassigned) [Compound 69a] | < 50 nM |
| C[C@H](COc1ccc(-n2c(C(=O)NCc3ccccc3-c3ncccn3)c3n(c2=O)C[C@@H](C)N(C(=O)c2ccc(Br)c(C(F)(F)F)c2)C3)cc1)N1CCOCC1 (single isomer, unassigned) [Compound 96a] | < 50 nM |
| C[C@H]1Cn2c(c(C(=O)NCc3ccccc3-c3ccncn3)n(-c3ccc(OC[C@@](C)(O)C(F)(F)F)cc3)c2=O)CN1C(=O)c1ccc(Br)c(C(F)(F)F)c1 (stereo in doubt) [Compound 82b, rac-(6S)-7-[4-bromo-3-(trifluoromethyl)benzoyl]-6-methyl-3-oxo-N-[(2-pyrimidin-4-ylphenyl)methyl]-2-[4-[rac-(2R)-3,3,3-trifluoro-2-hydroxy-2-methyl-propoxy]phenyl]-6,8-dihydro-SH-imidazo[1,5-a]pyrazine-1-carboxamide] | < 50 nM |
| C[C@@H]1Cn2c(c(C(=O)NCc3ccccc3-c3ccncn3)n(-c3ccc(OC[C@](C)(O)C(F)(F)F)cc3)c2=O)CN1C(=O)c1ccc(Br)c(C(F)(F)F)c1 (stereo in doubt) [Compound 83a, rac-(6R)-7-[4-bromo-3-(trifluoromethyl)benzoyl]-6-methyl-3-oxo-N-[(2-pyrimidin-4-ylphenyl)methyl]-2-[4-[rac-(2S)-3,3,3-trifluoro-2-hydroxy-2-methyl-propoxy]phenyl]-6,8-dihydro-SH-imidazo[1,5-a]pyrazine-1-carboxamide] | 50 to 500 nM |
| C[C@H]1Cn2c(c(C(=O)NCc3ccccc3-c3ccncn3)n(-c3ccc(OC[C@H](O)C(F)(F)F)cc3)c2=O)CN1C(=O)c1ccc(Br)c(C(F)(F)F)c1 (racemic) [Compound 63b, (6SR)-7-[4-bromo-3-(trifluoromethyl)benzoyl]-6-methyl-3-oxo-N-[(2-pyrimidin-4-ylphenyl)methyl]-2-[4-[(25)-3,3,3-trifluoro-2-hydroxy-propoxy]phenyl]-6,8-dihydro-5H-imidazo[1,5-a]pyrazine-1-carboxamide] | 50 to 500 nM |
| CC1Cn2c(c(C(=O)NCc3ccccc3-c3ncccn3)n(-c3ccc4c(cnn4C4CNC4)c3)c2=O)CN1C(=O)c1ccc(Br)c(C(F)(F)F)c1 (single isomer, unassigned) [Compound 109a] | 500 to 5000 nM |
| CC1Cn2c(c(C(=O)NCc3ccccc3-c3ccncn3)n(-c3ccc(N4CCO[C@H](C(F)(F)F)C4)cc3)c2=O)CN1C(=O)c1ccc(Br)c(C(F)(F)F)c1 (mixture of isomers) [Compound 52a, rac-(6S)-7-[4-bromo-3-(trifluoromethyl)benzoyl]-6-methyl-3-oxo-N-[(2-pyrimidin-4-ylphenyl)methyl]-2-[4-[(2S)-2-(trifluoromethyl)morpholin-4-yl]phenyl]-6,8-dihydro-5H-imidazo[1,5-a]pyrazine-1-carboxamide] | 50 to 500 nM |
| CC1Cn2c(c(C(=O)NCc3c(F)cccc3-c3cccnn3)n(-c3ccc(OC4CC4)cc3)c2=O)CN1C(=O)c1ccc(Br)c(C(F)(F)F)c1 (single isomer, unassigned) [Compound 50a] | 50 to 500 nM |
| O=C(NCc1ccccc1)c1c2n(c(=O)n1-c1ccc3ocnc3c1)CCN(C(=O)c1ccc(Br)c(Cl)c1)C2 [Compound 126, 2-(1,3-benzoxazol-5-yl)-N-benzyl-7-(4-bromo-3-chloro-benzoyl)-3-oxo-6,8-dihydro-5H-imidazo[1,5-a]pyrazine-1-carboxamide] | 500 to 5000 nM |
